Test results: article PMC10269165 (Antimicrobial Agents and Chemotherapy, 2023)
Read-outs that look alike come from different tables or passages of the source.

Columns and labels:
HcPMT1 = HcPMT1 (Haemonchus contortus, UniProt U5HK46); test: biochemical; format: biochemical; conditions: for Selectivity index (SI) HcPMT1: IC50^Cytotoxicity/IC50^Enzyme
Method: (§1) The chemical compounds were obtained from the National Cancer Institute/Developmental Therapeutics Program Open Chemical Repository. […] Compounds were individually reconstituted in molecular biology grade dimethyl sulfoxide (DMSO) from Sigma-Aldrich to a stock concentration of 10 mM and stored at −20°C until use. Initial screening was conducted using recombinant HcPMT1 protein as enzyme in the methyltransferase assay, with test compounds at a final concentration of 40 μM. […] To the positive reaction mixture, instead of test compound, an equivalent volume of DMSO was added. In the negative-control reaction mixture, instead of HcPMT1 and test compound, equivalent volumes of 1× transferase buffer and DMSO, respectively, were added. Detection buffer (100 μL) containing fluorescence substrate was added into each reaction mixture. The reactions were prepared in triplicate wells in 96-well plates. The plates were covered in aluminum foil and incubated at room temperature with agitation for 30 min, followed by reading the fluorescence at 380EX/520EM. The mean percent inhibition (MPI) of the test compound on enzymatic activity was calculated using the following formula: MPI = ΔRFUpositive control − ΔRFUcompounds/ΔRFUpositive control × 100, where the positive control is a reaction without compound but with recombinant PMT protein and a volume of DMSO equivalent to that of compound used in test reactions; the negative control is the reaction without protein and compounds, but with volumes of dialysis buffer and DMSO equivalent to protein and compound added in the test reaction mixtures, respectively; ΔRFUpositive control represents the absolute relative fluorescence units (RFU) for the positive control, which equals RFUpositive control – RFUnegative control; and ΔRFUcompounds represents the absolute RFU value for the sample with the compounds, which equals RFUcompounds – RFUnegative control.
(§2) The enzymatic assay was set up as described above, with the respective PMT protein as enzyme.

AcPMT1 = AcPMT1 (Ancylostoma duodenale, UniProt A0A0C2DEB6); test: biochemical; format: biochemical; conditions: for Selectivity index (SI) AcPMT1: IC50^Cytotoxicity/IC50^Enzyme
Sequence of AcPMT1 (A0A0C2DEB6 entry or part of it): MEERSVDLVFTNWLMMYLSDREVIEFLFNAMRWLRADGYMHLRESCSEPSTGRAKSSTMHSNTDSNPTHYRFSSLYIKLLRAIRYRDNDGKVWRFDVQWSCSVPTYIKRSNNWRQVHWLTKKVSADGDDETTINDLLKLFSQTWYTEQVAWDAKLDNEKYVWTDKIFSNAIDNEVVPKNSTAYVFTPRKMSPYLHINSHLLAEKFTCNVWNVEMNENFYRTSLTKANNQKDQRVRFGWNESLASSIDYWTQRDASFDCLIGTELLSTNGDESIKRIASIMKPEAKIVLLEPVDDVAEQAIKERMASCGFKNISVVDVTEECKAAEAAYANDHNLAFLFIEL
Method: as §1, §2

OdPMT = OdPMT (Oesophagostomum dentatum, UniProt A0A0B1TAL6); test: biochemical; format: biochemical; conditions: for Selectivity index (SI) OdPMT: IC50^Cytotoxicity/IC50^Enzyme;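 on Selectivity index (SI) OdPMT: cytotoxicity IC50 measured in HCT-8 cells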
Sequence of OdPMT (A0A0B1TAL6 entry or part of it): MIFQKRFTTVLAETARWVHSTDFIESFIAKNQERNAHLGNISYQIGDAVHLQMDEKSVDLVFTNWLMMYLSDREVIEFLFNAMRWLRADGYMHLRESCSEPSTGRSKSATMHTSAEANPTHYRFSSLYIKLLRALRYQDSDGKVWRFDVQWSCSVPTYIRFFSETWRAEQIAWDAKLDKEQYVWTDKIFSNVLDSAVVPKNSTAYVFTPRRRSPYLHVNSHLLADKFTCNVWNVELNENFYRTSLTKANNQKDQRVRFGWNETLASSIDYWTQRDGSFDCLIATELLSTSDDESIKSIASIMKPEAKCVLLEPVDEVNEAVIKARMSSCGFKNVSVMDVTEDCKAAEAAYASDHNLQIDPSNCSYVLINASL
Method: as §1, §2

[1] = system: nematode PMTs (HcPMT1, AcPMT1, AsPMT, DvPMT1, OdPMT1, TcPMT); test: Cross-inhibition of the panel of nematode PMTs (statements on all PMTs together); format: biochemical, parasitic nematodes; conditions: for cross-inhibitory activity against all the five PMTs: 40 μM, AcPMT1, AsPMT, DvPMT1, OdPMT1, TcPMT; for SI values based on the IC50^Enzyme values of the PMT proteins tested: all six PMTs of Table 4
Method: The chemical compounds were obtained from the National Cancer Institute/Developmental Therapeutics Program Open Chemical Repository. The library consisted of 419 compounds categorized as Natural Products Set IV (see Table S1). Compounds were individually reconstituted in molecular biology grade dimethyl sulfoxide (DMSO) from Sigma-Aldrich to a stock concentration of 10 mM and stored at −20°C until use. Initial screening was conducted using recombinant HcPMT1 protein as enzyme in the methyltransferase assay, with test compounds at a final concentration of 40 μM. The test reaction mixtures consisted of 40 μM test compound, 2.5 μL of SAM-free methyltransferase reaction buffer, 150 μM PE (pH 7.5), 120 μM SAM (pH 7.8), and 20 ng/μL of HcPMT1 protein, and the final volume made up to 50 μL with 1× transferase assay buffer. […] To the positive reaction mixture, instead of test compound, an equivalent volume of DMSO was added. In the negative-control reaction mixture, instead of HcPMT1 and test compound, equivalent volumes of 1× transferase buffer and DMSO, respectively, were added. Detection buffer (100 μL) containing fluorescence substrate was added into each reaction mixture. The reactions were prepared in triplicate wells in 96-well plates. The plates were covered in aluminum foil and incubated at room temperature with agitation for 30 min, followed by reading the fluorescence at 380EX/520EM. The mean percent inhibition (MPI) of the test compound on enzymatic activity was calculated using the following formula: MPI = ΔRFUpositive control − ΔRFUcompounds/ΔRFUpositive control × 100, where the positive control is a reaction without compound but with recombinant PMT protein and a volume of DMSO equivalent to that of compound used in test reactions; the negative control is the reaction without protein and compounds, but with volumes of dialysis buffer and DMSO equivalent to protein and compound added in the test reaction mixtures, respectively; ΔRFUpositive control represents the absolute relative fluorescence units (RFU) for the positive control, which equals RFUpositive control – RFUnegative control; and ΔRFUcompounds represents the absolute RFU value for the sample with the compounds, which equals RFUcompounds – RFUnegative control.
Compounds that had shown more than 50% inhibition on HcPMT1 activity and had no or very low cytotoxicity against HCT-8 cells were further tested for cross-inhibitory effect against the enzymatic activity of other recombinant PMT proteins (AcPMT1, AsPMT, DvPMT1, OdPMT, and TcPMT) at 40 μM. The enzymatic assay was set up as described above, with the respective PMT protein as enzyme. Compounds that depicted cross-inhibitory activity were further tested at various concentrations to derive their half-maximal effective concentrations (EC50) using nonlinear regression analysis by GraphPad Prism software.

[2] = read-out: Mean IC50 ± SEM, Enzyme HcPMT1
[3] = read-out: Mean IC50 ± SEM, Enzyme AcPMT1
[4] = read-out: Mean IC50 ± SEM, Enzyme OdPMT
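Wherever Selectivity index (SI) AcPMT1 is given: cytotoxicity IC50 measured in HCT-8 cells.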
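Wherever Selectivity index (SI) HcPMT1 is given: cytotoxicity IC50 measured in HCT-8 cells.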

Sequence of HcPMT1 (U5HK46 entry or part of it): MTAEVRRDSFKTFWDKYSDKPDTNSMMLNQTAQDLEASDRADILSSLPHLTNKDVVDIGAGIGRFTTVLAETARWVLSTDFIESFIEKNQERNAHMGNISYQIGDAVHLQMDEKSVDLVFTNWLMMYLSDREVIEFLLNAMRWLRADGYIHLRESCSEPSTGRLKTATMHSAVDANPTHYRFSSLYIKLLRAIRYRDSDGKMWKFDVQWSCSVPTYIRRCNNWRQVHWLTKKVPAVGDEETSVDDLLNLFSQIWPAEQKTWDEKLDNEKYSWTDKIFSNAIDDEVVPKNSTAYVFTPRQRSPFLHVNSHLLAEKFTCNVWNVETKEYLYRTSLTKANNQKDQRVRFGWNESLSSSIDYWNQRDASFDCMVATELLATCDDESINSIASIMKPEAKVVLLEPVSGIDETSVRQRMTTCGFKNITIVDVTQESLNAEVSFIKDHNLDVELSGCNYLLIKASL

SMILES | Selectivity index (SI) HcPMT1 (HcPMT1) | IC50 (HcPMT1; [2]) [µM] | Selectivity index (SI) AcPMT1 (AcPMT1) | IC50 (AcPMT1; [3]) [µM] | Selectivity index (SI) OdPMT (OdPMT) | IC50 (OdPMT; [4]) [µM] | cross-inhibitory activity against all the five PMTs [1] | SI values based on the IC50^Enzyme values of the PMT proteins tested [1] | IC50 (HcPMT1) [µM] | IC50 (AcPMT1) [µM] | IC50 (OdPMT) [µM]
O=c1c(O)cccc2cc(O)c(O)c(O)c12 [NSC35676, purpurogallin] | 27.96 | 20.2 ± 1.64 | 49.02 | 11.5 ± 0.94 | 33.80 | 16.8 ± 0.41 | significant cross-inhibitory activity | > 1 |  |  | 
CO[C@@]12[C@H](COC(N)=O)C3=C(C(=O)C(C)=C(N)C3=O)N1C[C@H]1[C@@H]2N1C (stereo partly drawn) [NSC56410] | 3.52 |  | 2.75 |  | 0.90 |  | significant cross-inhibitory activity |  | 53.5 ± 5.85 | 68.4 ± 5.39 | 210 ± 73.5
COc1ccc(-c2c(C)c(C(=O)O)nc(-c3ccc4c(O)c(OC)c5c(c4n3)=NC(C)(C)N=5)c2N)c(O)c1OC [NSC62709] | 10.86 | 27.5 ± 1.97 | 22.31 | 13.4 ± 1.3 | 9.39 | 31.8 ± 1.8 | significant cross-inhibitory activity | > 1 |  |  | 
COc1cc(C)c2c(c1C=O)Oc1c(c(C)c(O)c3c1C(O)OC3=O)OC2=O (stereo not drawn) [NSC87511] | 1.10 | 157 ± 26 | 2.61 | 65.8 ± 9.78 | 0.35 | 488 ± 162 | significant cross-inhibitory activity |  |  |  | 
CO[C@H]1/C=C/O[C@@]2(C)Oc3c(C)c(O)c4c(O)c(cc(O)c4c3C2=O)NC(=O)/C(C)=C\C=C\[C@H](C)[C@H](O)[C@@H](C)[C@@H](O)[C@@H](C)[C@H](OC(C)=O)[C@@H]1C [NSC133100] | 3.67 | 27.8 ± 1.71 | 3.23 | 31.5 ± 2.25 | 1.07 | 94.7 ± 5.03 | significant cross-inhibitory activity | > 1 |  |  | 
CO[C@@H]1/C=C\O[C@]2(C)Oc3c(C)c(O)c4c(O)c(c(CN(C)C)c(O)c4c3C2=O)NC(=O)/C(C)=C\C=C[C@@H](C)[C@@H](O)[C@H](C)[C@@H](O)[C@H](C)[C@H](OC(C)=O)[C@@H]1C [NSC145612] | 10.83 | 27.9 ± 1.57 | 11.05 | 27.4 ± 2.92 | 9.11 | 33.2 ± 2.26 | significant cross-inhibitory activity | > 1 |  |  | 
CO[C@@H]1/C=C/O[C@@]2(C)Oc3c(C)c(O)c4c(c3C2=O)C(=N[C@@H]2CC[C@@H](O)O[C@H]2C)C=C(NC(=O)/C(C)=C\C(=O)[C@@H]2C[C@@H]2[C@H](O)[C@@H](C)[C@@H](O)[C@@H](C)[C@H](OC(C)=O)[C@@H]1C)C4=O [NSC177383] | 3.93 | 21.7 ± 2.05 | 5.76 | 14.8 ± 2.06 | 3.20 | 26.7 ± 2 | significant cross-inhibitory activity | > 1 |  |  | 
